Series [1] in a line: Quantity of active agent incorporated in the yeast cells, released by hypertonic (osmotic) treatment and determined by HPLC. The format is physicochemical, Saccharomyces cerevisiae. The settings on record: batch not stated, column unlabelled. How it is done:
The suspensions obtained as described above were tested in order to check the quantity of ascorbic acid that had accumulated in the cells.
Step IV)—The suspension obtained in Step III) was centrifuged at 4000 r.p.m. (1252 R.C.F.). The precipitated was washed twice (sample A) or thrice (sample B) with an isotonic solution of sodium chloride (0.9%) keeping it in suspension during each washing.
Step V)—The centrifugate was brought up to 80 g with the hypertonic solution (NaCl 2.0M) used for Step I). In order to complete the osmotic treatment, the suspension was kept under gentle stirring for 6 hours at 25° C.
Step VI)—The ascorbic acid present in each solution (mg/ml) and in the microorganism (mg/g) was determined by HPLC, by the use of the following formula: mg/g=Ac×Ps×fs×Ds×1000/As×Pc×Dc,
The suspension obtained as described above was tested in order to check the quantity of oxytetracycline that had accumulated in the cells.
Step IV)—The suspension obtained in Step II) was centrifuged at 4000 r.p.m. (1252 R.C.F.). The centrifugate was washed twice (A) or thrice (B) with an isotonic solution of sodium chloride (0.9%) keeping it in suspension for 10 minutes before centrifugation.
Step VI)—The oxytetracycline HCl present in each solution (mg/ml) and in the microorganism (mg/g) was determined by HPLC, by the use of the following formula: mg/g=Ac×Ps×fs×Ds×1000/As×Pc×Dc,
The suspension obtained as described above was tested in order to check the quantity of sodium sulphadimethoxine that had accumulated in the cells.
Step VI)—The sodium sulphadimethoxine present in each (mg/ml) and in the microorganism (mg/g) was determined by HPLC, by the use of the following formula: mg/g=Ac×Ps×fs×Ds×1000/As×Pc×Dc,
The suspension as previously obtained was tested to ascertain the quantity of sodium sulphadimethoxin that had accumulated in the cells.
Step IV)—For analytical reasons, the suspension obtained in Step III) was diluted with an isotonic solution of sodium sulphadimethoxin (5.17%) to 200 g. An aliquot of 80 g of suspension was taken. The suspension was centrifuged at 10 000 r.p.m., and the centrifugate was washed twice (A) or thrice (B) with an isotonic solution of sodium chloride (0.9%). The suspension was stirred for 10 minutes before each washing.
Step VI)—The sodium sulphadimethoxin present in solution (mg/ml) and in the microorganism (mg/g) was determined by HPLC, by the use of the following formula: mg/g=Ac×Ps×fs×Ds×1000/As×Pc×Dc,
The suspension obtained as described above was tested in order to check the quantity of ascorbic acid that had been loaded in the cells. […]
Step VI)—The ascorbic acid present in the washing solution (mg/ml) and in the microorganism (mg/g) was determined by HPLC, by the use of the following formula: mg/g=Ac×Ps×fs×Ds×1000/As×Pc×Dc, […]

For series [2] the following is noted: known from the literature; cited from earlier work.
Series [3] in a line: Incorporated vitamins determined by HPLC after 5N HCl or NaOH 0.05N extraction of dried yeast. Format: physicochemical, Saccharomyces cerevisiae. The settings on record: Example 10, content in dried loaded yeast; for Incorporated vitamins (HCl extraction), Content: 5N HCl extraction; for Incorporated vitamins (NaOH extraction), Content: NaOH 0.05N extraction. Here is the method:
In this treatment yeast cells have been partially emptied by the hypertonic solution, comprising NaCl and Trisodium citrate bihydrate, as already described. Vitamins were then incorporated by incubation in a vitamins hypotonic solution (hypotonic=80% isotonicity). The quantity of vitamins loaded into the cells, was measured by HPLC. The suspension was then centrifuged and the centrifugates was washed twice with 560 g NaCl isotonic solution (0.9%). Step IV)-The centrifugate was air-dried at 45° C. for 36 hours. After mincing the dried pellets were sifted on a 400μ net. Step V)-The incorporated vitamins quantities were determined by HPLC af[…] HCl extraction for one hours at 25° C. under gentle stirring and after NaOH 0.05N extraction (one hours at 25° C. under gentle stirring). In this treatment yeast cells have been partially emptied by the hypertonic solution, comprising NaCl and Trisodium citrate bihydrate, as already described. α-tocopherol (vitamin E) was then incorporated by incubation in a vitamin hypotonic solution (hypotonic=80% isotonicity). The quantity of vitamin loaded into the cells, was measured HPLC. […] An aliquot of the solution (B), was then washed one more time with a NaCl isotonic solution Step IV)-The centrifugate was air-dried at 40° C. for 36 hours. The dried mass of cells was minced and then sifted on a 400μ net. Step V)-The incorporated vitamin quantities were determined by HPLC af[…] HCl extraction for one hour at 25° C. under gentle stirring.

`O=C1O[C@H]([C@@H](O)CO)C(O)=C1O` [Ascorbic acid, ascorbic acid]: the “Ascorbic acid final soln.” value in series [1] (Example 5, Test 5NC) worked out at 0.16 mg/mL. Also, the “thermostability of ascorbic acid as such” value in series [2] is given as “easily denatured at much lower temperatures”.

`Nc1nc2ncc(CNc3ccc(C(=O)N[C@@H](CCC(=O)O)C(=O)O)cc3)nc2c(=O)[nH]1` [Folic Acid, folic acid]: in series [3], the “Incorporated vitamins (HCl extraction), Content” value was 0.203 0/00 (mg/g) and the “Incorporated vitamins (NaOH extraction), Content” value is given as 2.663 0/00 (mg/g).

As to `CN(C)[C@@H]1C(O)=C(C(N)=O)C(=O)[C@@]2(O)C(O)=C3C(=O)c4c(O)cccc4[C@@](C)(O)[C@H]3[C@H](O)[C@@H]12.Cl` [Oxytetracyclin, oxytetracycline HCl], the Oxytetracyclin final soln. in series [1] (Example 2, Test 3NO) came out at 0.249 mg/mL.

Turning to `Cc1ncc(C[n+]2csc(CCO)c2C)c(N)n1` [Tiamine, thiamine], in series [3], the “Incorporated vitamins (HCl extraction), Content” value was 3.787 0/00 (mg/g) and the “Incorporated vitamins (NaOH extraction), Content” value is recorded as 3.493 0/00 (mg/g).

Consider `COc1cc([N-]S(=O)(=O)c2ccc(N)cc2)nc(OC)n1.[Na+]` [sulphadimetoxin, sodium sulphadimethoxine], for which the Sulphadimetoxin final soln. in series [1] (Example 3, Test 4NS1) amounted to 0.075 mg/mL; in series [1] (Example 4, Test 6NS1), 0.066 mg/mL.

As for cyanocobalamin, in series [3], the “Incorporated vitamins (HCl extraction), Content” value is 0.018 0/00 (mg/g) and the “Incorporated vitamins (NaOH extraction), Content” value was 0.014 0/00 (mg/g).

The values are drawn from patent US7399475B1, “Inactivated microorganisms comprising substances having pharmacological activity” (Toner Enterprise Inc., priority 1999, dated 2008).
